The text below walks through data of patent US4808614A (priority 1987, dated 1989).

One experiment has as its system Pseudorabies Virus. Kind of experiment: microbe, parasite or virus in culture. The format is cell-based. Particulars: Suid alphaherpesvirus 1, BSC-1, in Chlorocebus sabaeus, 72 h, read-out: Percent Plaque Inhibition.
For another experiment, the system named is Herpes simplex, type I. Kind of experiment: cells. Particulars: Chlorocebus sabaeus, BSC-1, 72 h, read-out: Percent Plaque Inhibition. The format is cell-based, Herpes simplex virus.
A further experiment concerns CA-755 adenocarcinoma. Description: Oncolytic activity in tumor system CA-755 adenocarcinoma. The format is in vivo.
The subject of experiment [1] is P1534J lymphatic leukemia. Description: Oncolytic activity in tumor system P1534J lymphatic leukemia. Type of experiment: in vivo.
The test system of experiment [2] is L1210V lymphocytic leukemia. Description: Oncolytic activity in tumor system L1210V lymphocytic leukemia. Type of experiment: in vivo.
Another experiment deals with 6C3HED lymphosarcoma. Description: Oncolytic activity in tumor system 6C3HED lymphosarcoma. Type of experiment: in vivo.
Experiment [3] concerns X5563 plasma cell myeloma. Description: Oncolytic activity in tumor system X5563 plasma cell myeloma. Type of experiment: in vivo.

For orientation: inhibition means the percentage by which the read-out fell short of the control. For `Cc1cn(C2O[C@H](CO)[C@@H](O)C2(F)F)c(=O)[nH]c1=O` (some centres unmarked) [DFAT, 1-(5-methyl-2,4-dioxo-1H,3H-pyrimidin-1-yl)-2-desoxy-2,2-difluororibose], in the experiment on Pseudorabies Virus, the inhibition at 3 µg/mL stood at 5%, the inhibition at 6 µg/mL worked out at 6%, the inhibition at 12 µg/mL was determined as 12% and the inhibition at 25 µg/mL turned out to be 15%. Also, in the experiment on Pseudorabies Virus, the inhibition at 50 µg/mL was determined as 18% and the inhibition at 100 µg/mL is 23%. In the experiment on Herpes simplex, type I, the inhibition at 0.39 µg/mL is 4%, the inhibition at 0.78 µg/mL turned out to be 8%, the inhibition at 1.56 µg/mL was 0% and the inhibition at 3.12 µg/mL turned out to be 12%. In the experiment with Herpes simplex, type I, the inhibition at 6.25 µg/mL amounted to 15%, the inhibition at 12.5 µg/mL worked out at 35%, the inhibition at 25 µg/mL came to 53% and the inhibition at 50 µg/mL amounted to 72%. The inhibition at 100 µg/mL in the experiment on Herpes simplex, type I amounted to 96%.
Consider `Nc1ccn(C2O[C@H](CO)[C@@H](O)C2(F)F)c(=O)n1` (some centres unmarked) [Example 8, 1-(2-oxo-4-amino-1H-pyrimidin-1-yl)-2-desoxy-2,2-difluororibose], for which the oncolytic activity result (with CA-755 adenocarcinoma; in experiment [1]; in experiment [2]; with 6C3HED lymphosarcoma; in experiment [3]) was “demonstrated activity” each time.
